Laboratory results from patent US4797362A (priority 1985, dated 1989).
Where two headings read alike, the source gives them in different places. Numbered stars: 1 amine (or outer) side, 2 acyl side, 3 side chain; on linkers, the order of the positions; unused ones are H or OH. Peptide text beside a SMILES is read from it. CO = O=C([*:1])[*:2]

Experiments:
[1] = tested on: alkaline protease Ya (enzyme Ya) produced by Bacillus sp. Y (FERM BP-1029); type: biochemical; details: for Relative Activity Enzyme Ya: pH 7.2, 30 min
[2] = tested on: alkaline protease Yb (enzyme Yb) produced by Bacillus sp. Y (FERM BP-1029); type: biochemical; details: for Relative Activity Enzyme Yb: pH 7.2, 30 min

## O=S(=O)(F)Cc1ccccc1 [PMSF]
[1]
  Inhibition of enzyme Ya (in words): inhibited
[1]; 1000 µM
  Relative Activity Enzyme Ya: 0
[2]
  Inhibition of enzyme Yb (in words): inhibited
[2]; 1000 µM
  Relative Activity Enzyme Yb: 1

## CC(C)[C@H](NC(=O)[C@H](CCCNC(=N)N)NC(=O)N[C@@H](Cc1ccccc1)C(=O)O)C(=O)N[C@H](C=O)CCCNC(=N)N [Antipain] ({Phe-CO}-Arg-Val-Arg-aldehyde)
[1]
  Inhibition of enzyme Ya (in words): not inhibited
  Relative Activity Enzyme Ya: 124
[2]
  Inhibition of enzyme Yb (in words): not inhibited
  Relative Activity Enzyme Yb: 87

## Chymostatin
[1]
  Inhibition of enzyme Ya (in words): not inhibited
  Relative Activity Enzyme Ya: 77
[2]
  Inhibition of enzyme Yb (in words): not inhibited
  Relative Activity Enzyme Yb: 75

## NC(N)=O [Urea]
[1]
  Relative Activity Enzyme Ya: 130
[2]
  Relative Activity Enzyme Yb: 82

## O=C(O)CN(CCN(CC(=O)O)CC(=O)O)CC(=O)O [EDTA]
[1]
  Inhibition of enzyme Ya (in words): not inhibited
[1]; 5000 µM
  Relative Activity Enzyme Ya: 97
[2]
  Inhibition of enzyme Yb (in words): not inhibited
[2]; 5000 µM
  Relative Activity Enzyme Yb: 100

## O=C(O)c1cc[c]([Hg][Cl])cc1 [PCMB]
[1]
  Inhibition of enzyme Ya (in words): not inhibited
[1]; 1000 µM
  Relative Activity Enzyme Ya: 122
[2]
  Inhibition of enzyme Yb (in words): not inhibited
[2]; 1000 µM
  Relative Activity Enzyme Yb: 92
